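Interpolation was linear, between the two tested concentrations surrounding the appropriate level; five concentrations were tested over 48 hours in 96-well plates. The concentration for 50% growth inhibition is given as GI50. TGI: concentration producing complete growth inhibition.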

Among the test systems are SF-295 CNS; ACHN renal; UACC-62 melanoma; MDA-MB-435; NCI-H23 lung; DU-145 prostate; MCF7 breast; BT-549 breast; SK-MEL-5 melanoma; SNB-19 CNS.
What all share (assay): inhibition of tumour cell growth, NCI panel, 48 h

For `Cc1nc2c(n1C)C(=O)c1ccccc1C2=O`, the GI50 in the experiment with SF-295 CNS is 10.8 µM; with ACHN renal it was over 100 µM; in the experiment with UACC-62 melanoma it was 56 µM; in the experiment on MDA-MB-435, 48.1 µM; in the experiment on NCI-H23 lung it was 50.4 µM; with DU-145 prostate it was 51.3 µM. Further, the GI50 in the experiment with MCF7 breast was 46.1 µM; in the experiment on BT-549 breast, over 100 µM; in the experiment on SK-MEL-5 melanoma, 22 µM; in the experiment with SNB-19 CNS, 91.3 µM. Also, the TGI in the experiment with SF-295 CNS is 72.3 µM; with ACHN renal, over 100 µM; in the experiment with UACC-62 melanoma it was over 100 µM; in the experiment on MDA-MB-435, over 100 µM; with NCI-H23 lung, over 100 µM; in the experiment with DU-145 prostate, over 100 µM. The TGI in the experiment on MCF7 breast was over 100 µM; in the experiment with BT-549 breast, over 100 µM; in the experiment with SK-MEL-5 melanoma, 85.2 µM; in the experiment with SNB-19 CNS, over 100 µM.

Consider `O=P1(S)OC[C@H]2O[C@@H]3[C@H](F)[C@@H]2OP(O)(=S)OC[C@H]2O[C@H]([C@H](F)[C@@H]2O1)n1cnc2c(ncnc21)NC/C=C/CNc1ncnc2c1ncn23` (stereo partly drawn), for which the GI50 in the experiment with SF-295 CNS, in the experiment with ACHN renal, in the experiment with UACC-62 melanoma, in the experiment on MDA-MB-435, in the experiment on NCI-H23 lung and with DU-145 prostate was over 100 µM throughout. Also, the GI50 with MCF7 breast, in the experiment with SK-MEL-5 melanoma and with SNB-19 CNS was over 100 µM in each case. For the same molecule, the TGI in the experiment with SF-295 CNS, in the experiment on ACHN renal, with UACC-62 melanoma, in the experiment on MDA-MB-435, in the experiment with NCI-H23 lung and with DU-145 prostate was over 100 µM in each case. Further, the TGI in the experiment with MCF7 breast, with BT-549 breast, in the experiment with SK-MEL-5 melanoma and in the experiment on SNB-19 CNS was over 100 µM each time.

On to `COc1cc2c(cc1O)CC1c3c(cc(O)c(OC)c3-2)CCN1C` (stereo not drawn), for which the TGI in the experiment on SF-295 CNS, in the experiment with ACHN renal, in the experiment on UACC-62 melanoma, in the experiment with MDA-MB-435, in the experiment on NCI-H23 lung and in the experiment with DU-145 prostate was over 100 µM each time. Moreover, the TGI in the experiment on MCF7 breast, in the experiment on BT-549 breast, with SK-MEL-5 melanoma and in the experiment on SNB-19 CNS was over 100 µM in each case.

For the molecule `O=C(c1ccccc1)c1c(NCC(O)CN2CCOCC2)n(Cc2ccccc2)c(=O)n(Cc2ccccc2)c1=O` (stereo not drawn), the GI50 is 36.2 µM with SF-295 CNS; 40.5 µM with ACHN renal; 36.7 µM in the experiment on UACC-62 melanoma; 35.2 µM with MDA-MB-435; 1.19 µM in the experiment with NCI-H23 lung; 35.2 µM in the experiment on DU-145 prostate. Further, the GI50 is 48.2 µM with MCF7 breast, 29.3 µM in the experiment on BT-549 breast, 33.4 µM in the experiment with SK-MEL-5 melanoma and 19.1 µM with SNB-19 CNS. The TGI is over 100 µM in the experiment with SF-295 CNS; over 100 µM with ACHN renal; over 100 µM in the experiment on UACC-62 melanoma; over 100 µM with MDA-MB-435; over 77.5 µM in the experiment on DU-145 prostate; over 100 µM with MCF7 breast. Moreover, the TGI with BT-549 breast was over 100 µM; in the experiment on SK-MEL-5 melanoma, over 100 µM; with SNB-19 CNS, over 84.7 µM.

`CC(C)Cc1ccc(C(C)CC2=CCC(CN(C)C)C2=O)cc1` (stereo not drawn): the TGI in the experiment on SF-295 CNS worked out at 32.1 µM; in the experiment on ACHN renal it was 30.4 µM; in the experiment with UACC-62 melanoma, 23 µM; in the experiment with MDA-MB-435 it was 20.5 µM; in the experiment on NCI-H23 lung it was 28.2 µM; in the experiment on DU-145 prostate it was 30.2 µM. The TGI in the experiment with MCF7 breast is 2.78 µM; with BT-549 breast, 38.9 µM; with SK-MEL-5 melanoma, 28.9 µM; in the experiment on SNB-19 CNS, 29.5 µM.

Take `O=C(Oc1ccc(CO[N+](=O)[O-])cc1)c1ccccc1`: the GI50 in the experiment with SF-295 CNS is 0.194 µM; with ACHN renal it was 0.113 µM; in the experiment on UACC-62 melanoma, 0.169 µM; in the experiment with MDA-MB-435, 0.157 µM; with NCI-H23 lung, 0.351 µM; in the experiment on DU-145 prostate it was 0.289 µM. For the same molecule, the GI50 is 0.194 µM in the experiment with MCF7 breast, 0.139 µM in the experiment on BT-549 breast, 0.474 µM in the experiment with SK-MEL-5 melanoma and 0.202 µM with SNB-19 CNS. The TGI in the experiment on SF-295 CNS turned out to be 0.631 µM; in the experiment on ACHN renal it was 0.236 µM; in the experiment on UACC-62 melanoma, 0.396 µM; in the experiment on MDA-MB-435, 0.307 µM; in the experiment on NCI-H23 lung, 1.43 µM; in the experiment with DU-145 prostate it was 0.818 µM. For the same molecule, the TGI in the experiment with MCF7 breast was 0.722 µM; with BT-549 breast, 0.27 µM; with SK-MEL-5 melanoma, 1.73 µM; with SNB-19 CNS it was 0.706 µM.

Regarding `Cn1cc(C2=C(c3cn(C)c4ccc(Cl)cc34)C(=O)NC2=O)c2ccccc21`, the GI50 with SF-295 CNS is 1.6 µM; with ACHN renal, 3.15 µM; in the experiment with UACC-62 melanoma it was 2.42 µM; with MDA-MB-435, 0.645 µM; in the experiment on NCI-H23 lung, 4.64 µM; in the experiment with DU-145 prostate, 8.45 µM. Moreover, the GI50 is 1.25 µM with MCF7 breast, 3.56 µM in the experiment on BT-549 breast, 3.47 µM in the experiment on SK-MEL-5 melanoma and 8.33 µM in the experiment with SNB-19 CNS. Also, the TGI in the experiment on SF-295 CNS is 8.02 µM; with ACHN renal, over 25 µM; in the experiment on UACC-62 melanoma it was 8.36 µM; in the experiment on MDA-MB-435 it was 2.85 µM; with NCI-H23 lung, 14.6 µM; with DU-145 prostate it was over 25 µM. Besides, the TGI in the experiment with MCF7 breast was over 25 µM; in the experiment with BT-549 breast it was 9.03 µM; in the experiment on SK-MEL-5 melanoma, 8.28 µM; in the experiment with SNB-19 CNS it was over 25 µM.

Consider `Cc1nc2ccc(NC(=O)CCNC(=O)CCCc3ccc(CC(C(=O)O)C(=O)O)cc3)cc2s1`, for which the GI50 with SF-295 CNS, in the experiment on ACHN renal, in the experiment on UACC-62 melanoma, in the experiment on MDA-MB-435, in the experiment on NCI-H23 lung and in the experiment on DU-145 prostate was over 100 µM in each case. Also, the GI50 in the experiment with MCF7 breast, in the experiment with BT-549 breast, in the experiment on SK-MEL-5 melanoma and with SNB-19 CNS was over 100 µM each time. The TGI with SF-295 CNS, in the experiment on ACHN renal, in the experiment with UACC-62 melanoma, in the experiment with MDA-MB-435, in the experiment on NCI-H23 lung and with DU-145 prostate was over 100 µM in each case. The TGI with MCF7 breast, with BT-549 breast, in the experiment on SK-MEL-5 melanoma and with SNB-19 CNS was over 100 µM each time.

`CC1=Nc2ccccc2/C1=C\c1c(C)[nH]c2ccccc12`: the TGI in the experiment on SF-295 CNS was found to be 43 µM; in the experiment with ACHN renal, 29.5 µM; in the experiment on UACC-62 melanoma, 25.1 µM; with MDA-MB-435, 26.7 µM; in the experiment with NCI-H23 lung it was 38.6 µM; in the experiment with DU-145 prostate, 31.2 µM. Besides, the TGI is 18.3 µM in the experiment on MCF7 breast, 15.1 µM with BT-549 breast, 28.1 µM in the experiment on SK-MEL-5 melanoma and 35.5 µM with SNB-19 CNS.

With `CCCCCC[C@H](C)Nc1nc2ccccc2c2occc12`, the GI50 in the experiment on SF-295 CNS was 6.01 µM; in the experiment with ACHN renal, 11.7 µM; in the experiment on UACC-62 melanoma, 11.6 µM; with MDA-MB-435, 14.7 µM; in the experiment on NCI-H23 lung it was 0.576 µM; in the experiment with DU-145 prostate it was 3.34 µM. Besides, the GI50 with MCF7 breast is over 100 µM; in the experiment on BT-549 breast it was 4.38 µM; with SK-MEL-5 melanoma, 3.66 µM; with SNB-19 CNS, 29.7 µM. Further, the TGI was determined as 25.5 µM with SF-295 CNS; 23.9 µM in the experiment on ACHN renal; 24.1 µM with UACC-62 melanoma; 35.2 µM in the experiment on MDA-MB-435; 7.23 µM in the experiment with NCI-H23 lung; 14 µM in the experiment on DU-145 prostate. The TGI with MCF7 breast was over 100 µM; with BT-549 breast it was 18.5 µM; with SK-MEL-5 melanoma, 18 µM; in the experiment on SNB-19 CNS, over 100 µM.

For the molecule `C1=C2CCCC3=Cc4ccccc4OC23Oc2ccccc21`, the GI50 was 3.99 µM in the experiment with SF-295 CNS; 5.06 µM in the experiment with ACHN renal; 2.91 µM in the experiment with UACC-62 melanoma; 1.64 µM in the experiment on MDA-MB-435; 6.2 µM in the experiment with NCI-H23 lung; 3.73 µM in the experiment on DU-145 prostate. Also, the GI50 was 3.03 µM in the experiment with MCF7 breast, 3.73 µM with BT-549 breast, 3.37 µM in the experiment with SK-MEL-5 melanoma and 4.01 µM with SNB-19 CNS. In addition, the TGI in the experiment on SF-295 CNS was over 100 µM; in the experiment with ACHN renal it was over 100 µM; with UACC-62 melanoma, 82.5 µM; with MDA-MB-435 it was 4.68 µM; with NCI-H23 lung, over 100 µM; in the experiment on DU-145 prostate, 69.1 µM. The TGI is 60.6 µM with MCF7 breast, 73.7 µM in the experiment with BT-549 breast, 24.2 µM in the experiment on SK-MEL-5 melanoma and over 100 µM in the experiment with SNB-19 CNS.

As to `COC(=O)C1C(O)C(C)C(O)C(C)C=C(C)C2=C3C(=C(C)C(=O)c4c(O)c(c(C)c(OC(C)=O)c43)NC(=O)C(C)=C/C=C\C(C)C(O)C(C)C1O)OCO2` (stereo not drawn), the TGI was over 100 µM with SF-295 CNS; over 100 µM in the experiment on ACHN renal; 74.5 µM in the experiment with UACC-62 melanoma; 30.4 µM in the experiment on MDA-MB-435; 63 µM in the experiment on NCI-H23 lung; over 100 µM with DU-145 prostate. Also, the TGI with MCF7 breast is 58.7 µM; with BT-549 breast, 39.2 µM; in the experiment with SK-MEL-5 melanoma, 39.4 µM; in the experiment with SNB-19 CNS, over 100 µM.

Source of the values: PubChem BioAssay (NCI).
